Like-named read-outs stand apart in the source and are kept apart here.
Experiments:
[1] = test system: CHO-K1 cells; assay: Toxicity in RRA (loss of luciferase signal); conditions: Conc 20 μg/ml, toxicity = loss of signal (<0.75 fold increase)
Description: The beta amyloid inhibitory activity of the compounds of the present invention was determined using the Repressor Release Assay (RRA).
“Fold Increase” refers to the amount of luciferase activity (measured in relative light units) over diluent control. “SEM” refers to the standard error of the mean for fold increase.

[2] = test system: beta amyloid production; assay: Repressor Release Assay (RRA); assay type: cell-based; conditions: Conc 20 μg/ml, read-out: APPI Fold Increase
In short: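 Read-out is luciferase luminescence (RLU) after 36-48 h duplicate compound exposure of transfected CHO-K1 cells. These cells carry transiently introduced APP-lacI and pRSVO-luc DNA. Diluent control was 25 mM Hepes/1% DMSO; toxicity recorded as binary score (1 non-toxic, 0 toxic).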

[3] = luciferase activity (RLU) over diluent control

SMILES | (%)APPI Toxicity [1] | fold induction at 20 µg/mL ([2]; luciferase activity over diluent control) | (%)APPI Toxicity ([1]; 1=non-toxic, 0=toxic) | fold induction at 20 µg/mL [2, 3]
CCCCCC[C@@H](C)[C@@H](CO)NS(=O)(=O)c1ccc(Cl)cc1 [Example 50, 4-chloro-N-[(1S,2R)-1-(hydroxymethyl)-2-methyloctyl]benzenesulfonamide] | 1 (1=non-toxic) | 2.5 |  | 
C[C@H](c1ccccc1)[C@@H](CO)NS(=O)(=O)c1ccc(Cl)cc1 [Example 51, 4-chloro-N-[(1S,2R)-1-(hydroxymethyl)-2-phenylpropyl]benzenesulfonamide] |  |  | 1 (1=non-toxic) | 1.6
CCC(CC)[C@@H](CO)NS(=O)(=O)c1ccc(Cl)cc1 [Example 52, 4-chloro-N-[(1S)-2-ethyl-1-(hydroxymethyl)butyl]benzenesulfonamide] |  |  | 1 (1=non-toxic) | 6.2
CC[C@H](CC(C)C)[C@@H](CO)NS(=O)(=O)c1ccc(Cl)cc1 [Example 53, 4-chloro-N-[(1S,2R)-2-ethyl-1-(hydroxymethyl)-4-methylpentyl]benzenesulfonamide] |  |  | 1 (1=non-toxic) | 5.2
CCC[C@H](C)[C@@H](CO)NS(=O)(=O)c1ccc(Cl)cc1 [Example 54, 4-chloro-N-[(1S,2S)-1-(hydroxymethyl)-2-methylpentyl]benzenesulfonamide] |  |  | 1 (1=non-toxic) | 5
CCC[C@H](CC)[C@@H](CO)NS(=O)(=O)c1ccc(Cl)cc1 [Example 55, 4-chloro-N-[(1S,2S)-2-ethyl-1-(hydroxymethyl)pentyl]benzenesulfonamide] |  |  | 1 (1=non-toxic) | 5.6
CCC[C@H](CC(C)C)[C@@H](CO)NS(=O)(=O)c1ccc(Cl)cc1 [Example 56, 4-chloro-N-[(1S,2R)-1-(hydroxymethyl)-4-methyl-2-propylpentyl]benzenesulfonamide] |  |  | 1 (1=non-toxic) | 3.6
CCC[C@H](c1ccc(OC)cc1)[C@@H](CO)NS(=O)(=O)c1ccc(Cl)cc1 [Example 57, 4-chloro-N-[(1S,2R)-1-(hydroxymethyl)-2-(4-methoxyphenyl)pentyl]benzenesulfonamide] |  |  | 1 (1=non-toxic) | 1.7
CCCCCC[C@@H](CCC)[C@@H](CO)NS(=O)(=O)c1ccc(Cl)cc1 [Example 58, 4-chloro-N-[(1S,2R)-1-(hydroxymethyl)-2-propyloctyl]benzenesulfonamide] |  |  | 1 (1=non-toxic) | 2.6
CCC[C@H](c1ccccc1)[C@@H](CO)NS(=O)(=O)c1ccc(Cl)cc1 [Example 59, 4-chloro-N-[(1S,2R)-1-(hydroxymethyl)-2-phenylpentyl]benzenesulfonamide] |  |  | 1 (1=non-toxic) | 3.2
CCCCC[C@H](C)[C@@H](CO)NS(=O)(=O)c1ccc(Cl)cc1 [Example 60, 4-chloro-N-[(1S,2S)-1-(hydroxymethyl)-2-methylheptyl]benzenesulfonamide] |  |  | 1 (1=non-toxic) | 4.6
CCCCC[C@H](CC)[C@@H](CO)NS(=O)(=O)c1ccc(Cl)cc1 [Example 61, 4-chloro-N-[(1S,2S)-2-ethyl-1-(hydroxymethyl)-heptyl]benzenesulfonamide] |  |  | 1 (1=non-toxic) | 6.5
CCCCCC[C@@H](CCCCC)[C@@H](CO)NS(=O)(=O)c1ccc(Cl)cc1 [Example 62, 4-chloro-N-[(1S,2R)-1-(hydroxymethyl)-2-pentyloctyl]benzenesulfonamide] |  |  | 1 (1=non-toxic) | 1.8
C[C@@H](c1ccccc1)[C@@H](CO)NS(=O)(=O)c1ccc(Cl)cc1 [Example 63, 4-chloro-N-[(1S,2S)-1-(hydroxymethyl)-2-phenylpropyl]benzenesulfonamide] |  |  | 1 (1=non-toxic) | 2
